{
  "source": "patent US12377095B2",
  "about": "“Use of ligustrazine nitrone derivatives in treatment and prevention of diabetic complication diseases” (QINGDAO HAILAN PHARMACEUTICALS CO., LTD., priority 2019, dated 2025)",
  "key": {"db/db mice": {"test_system": "db/db mice", "test": "Electron microscopy of kidney tissue in db/db mice", "type": "in vivo, mouse", "description": "db/db mice are congenital obese type 2 DKD mice with spontaneous mutations in the leptin receptor (Leptin receptor, Lepr) due to a point mutation in the leptin receptor gene GT located on chromosome 4. The course of polyphagia, polyuria, diabetes and hyperglycemia is similar to that of humans, and it is currently the most widely used type 2 spontaneous animal model of DKD. The db/db mice have a series of complications with the aggravation of diabetes. The main pathological changes of renal tissue are the expansion of the glomerular mesangial interstitium, the thickening of the glomerular basement membrane, and the excessive accumulation of extracellular matrix. However, the glomerular mesangium of db/db mice changes relatively slowly, and the glomerular mesangium will not be dissolved or nodular glomerulosclerosis, and there is no progressive renal insufficiency.\nSix-week-old db/db mice were purchased, and start the administration after adaptive feeding for 1 week (i.e., 7-week-old). TBN is administered twice a day (fixed by starting from 9:00-10:00 am and 3:00-4:00 pm, with an interval of 6 hours), and the positive control drug Losartan was administered once a day (fixed at 9:00-10:00 am) for 6 weeks.\nAfter the mice were executed, the renal cortex was quickly taken with sharp blade (performed on ice); fixed with 2.5% glutaraldehyde (pH 7.4) at 4° C. for 6 h; then fixed for 2 h in a stationary liquid having 1:1 of 0.2 mmol/L PBS and 2% osmic acid, and dehydrated with gradient acetone at 4° C., 10 min for each of 50%, 70%, 90% acetone, then dehydrated with 100% acetone at room temperature twice, each time 15 min; in 1:1 acetone and Epon812 epoxy resin embedded mixed liquid, soaked at room temperature for 30 min; then dipped through the pure furnishings overnight, the embedding agent was made enveloping into tissue blocks completely to replace the dehydrating agent; the samples were embedded in the embedder for ultra-thin slicing, placed at 35° C. for 12 h; placed at 45° C. for 12 h; placed at 60° C. for 48 h; placed in a 37° C. oven for 36 h, in a 60° C. oven for 36 h; 1.5 μm semi-slice was prepared with an ultra-thin slicer; positioning under optical microscope, a trapeter having a top area of about 1 mm^2 was shaped to prepare 60-70 nm thick ultra-thin slices; dyed in dark with acetate hydroxide liquid for 10 min, and dyed in lead-stained citrate for 10 min."}, "[1]": {"test_system": "spontaneous diabetic model in rhesus monkeys", "test": "Spontaneous diabetic model in rhesus monkeys, serum EPO and iron", "type": "in vivo"}, "STZ-induced DKD rats [2]": {"test_system": "STZ-induced DKD rats", "test": "PAS staining, glomerular sclerosis index, STZ-induced DKD rats", "type": "in vivo, rat", "conditions": "all doses of TBN (10, 30, 60 mg/kg twice/day); Losartan 10 mg/kg once/day; 6 weeks; P<0.001 vs Vehicle", "experimental": "(§1) Before the injection, the rats were fasted for 12 hours without water. After weighing, the rats were injected with 55 mg/kg STZ intraperitoneally (STZ needs to be injected quickly, and the injection was completed within 10 minutes), and then returned to the cage to ensure that the rats had sufficient drinking water for 24 hours. Rats were injected with an equal volume of citrate buffer (pH 4.5). After STZ injection for 3 weeks, blood was collected from the tail vein, and blood glucose ≥16.7 mmol/L was used as the criteria for the standard of the rats.\n(§2) The route of administration is intragastric administration. TBN was administered twice a day (fixed at 9:00-10:00 am and 3:00-4:00 pm), and Losartan was administered once a day (fixed at 9:00-10:00 am) continuously for 6 weeks.\nAt the end of the experiment, kidney tissues were quickly separated, fixed with 4% paraformaldehyde and embedded in paraffin, serially sliced, 5 μm each, dried at 37° C. for 1 h, and then stained with PAS. The process is briefly as follows: paraffin sections are taken out of the 65° C. oven and immediately placed in xylene for deparaffinization and gradient alcohol rehydration, followed by periodic acid treatment for 5 min and Schiff treatment for 10 min, and then differentiation is performed with differentiation solution for 10 s. […]"}, "[3]": {"test_system": "cisplatin-induced C57BL/6J mice", "test": "Serum erythropoietin in cisplatin-induced renal anemia C57BL/6J mice", "type": "in vivo, mouse", "experimental": "Modeling method: the animals were randomly divided into 5 groups, i.e., normal control group, model group, three treatment groups, wherein the normal control group was injected with equal volume of normal saline, the model group and three treatment groups were intraperitoneally injected with cisplatin (CDDP) 5 mg/kg once a week, for 4 weeks.\nThe route of administration is intragastrical. TBN is administered twice a day (fixed at 9:00-10:00 am and 3:00-4:00 pm), and Roxadustat is administered once every two days (fixed at 9:00-10:00 am), for 4 weeks.\nAt the end of the experiment, after rats were anesthetized, the blood was taken from the abdominal aorta, allowed to stand for 1 hour, centrifuged at 3000 rpm for 10 min, and stored in aliquots at −80° C. The content of erythropoietin in the serum was detected by using of a kit. After the administration, compared with the model group, the TBN treatment groups can increase the expression of erythropoietin to varying degrees."}, "STZ-induced DKD rats [4]": {"test_system": "STZ-induced DKD rats", "test": "Serum erythropoietin (ELISA) in STZ-induced DKD rats", "type": "in vivo, rat", "experimental": "as §1, §2\nAt the end of the experiment, after rats were anesthetized, blood was taken from the abdominal aorta, allowed to stand for 1 hour, the supernatant was collected by centrifugation at 3000 rmp for 10 min. The serum erythropoietin level was measured according to the kit operating instructions. […] In the measurement, the blank hole was adjusted to zero, and the absorbance (OD value) of each hole was measured in sequence with a wavelength of 450 nm. […]"}, "STZ-induced DKD rats [5]": {"test_system": "STZ-induced DKD rats", "test": "Masson staining, interstitial fibrosis index, STZ-induced DKD rats", "type": "in vivo, rat", "experimental": "as §1, §2\nAt the end of the experiment, the kidney tissues were quickly separated, fixed with 4% paraformaldehyde and embedded in paraffin, serially sliced, 5 μm each, dried at 37° C. for 1 h, and then subjected to Masson staining. The process is briefly as follows: paraffin sections are taken out of the 65° C. oven and immediately put in xylene for dewaxing and gradient alcohol rehydration, according to the kit instructions, add reagent A (a mixture of equal amounts of A1 and A2) for dyeing for 8 min; then use Reagent B differentiates and reagent C turns blue; reagent D stains for 7 min; reagent E washes for 1 min; reagent F washes for 1 min; reagent G stains for 1 min; dehydrated with 95% ethanol and absolute ethanol, transparent xylene, sealed with neutral gum piece."}},
  "data": [
    {"smiles": "Cc1nc(C)c(/C=[N+](\\[O-])C(C)(C)C)nc1C", "note": "[TBN]", "values": [
      {"measurement": "podocyte fusion", "setting": "db/db mice; 10 mg/kg", "value": "slight podocyte fusion"},
      {"measurement": "proliferation of the glomerular membrane", "setting": "db/db mice; 10 mg/kg", "value": "no significant proliferation"},
      {"measurement": "thickness of the glomerular base film", "setting": "db/db mice; 10 mg/kg, 6 weeks (TBN P<0.05; Losartan P<0.01)", "value": "decrease"},
      {"measurement": "podocyte fusion", "setting": "db/db mice; 30 mg/kg", "value": "podocyte fusion in small area"},
      {"measurement": "proliferation of the glomerular measuring membrane", "setting": "db/db mice; 30 mg/kg", "value": "no significant proliferation"},
      {"measurement": "thickness of the glomerular base film", "setting": "db/db mice; 30 mg/kg, P<0.01 vs db/db", "value": "significantly reduced"},
      {"measurement": "podocyte fusion", "setting": "db/db mice; 60 mg/kg", "value": "no obvious segmental fusion"},
      {"measurement": "proliferation of glomerular membranes", "setting": "db/db mice; 60 mg/kg", "value": "no significant proliferation"},
      {"measurement": "thickness of the glomerular base film", "setting": "db/db mice; 60 mg/kg, P<0.01 vs db/db", "value": "significantly reduced"},
      {"measurement": "serum EPO content", "setting": "[1]", "value": "increase"},
      {"measurement": "serum iron content", "setting": "[1]", "value": "increase"},
      {"measurement": "glomerular sclerosis index", "setting": "STZ-induced DKD rats [2]", "value": "significantly reduce"},
      {"measurement": "expression/content of erythropoietin vs model group", "setting": "[3]; TBN treatment groups (30, 60 mg/kg), to varying degrees, dose dependence", "value": "increase"},
      {"measurement": "efficacy on EPO content compared with positive control drug", "setting": "[3]; high-dose group (60 mg/kg) vs Roxadustat 10 mg/kg", "value": "stronger than that of the positive control drug"},
      {"measurement": "serum EPO content", "setting": "STZ-induced DKD rats [4]; 30 mg/kg and 60 mg/kg, P<0.05", "value": "increased EPO content with significant statistical difference"},
      {"measurement": "serum EPO content", "setting": "STZ-induced DKD rats [4]; TBN dose groups (10, 30, 60 mg/kg) vs vehicle, to varying degrees", "value": "increased"},
      {"measurement": "interstitial fibrosis index", "setting": "STZ-induced DKD rats [5]; 60 mg/kg, P<0.01", "value": "improved the most significantly"},
      {"measurement": "interstitial fibrosis index", "setting": "STZ-induced DKD rats [5]; TBN treatment groups (10, 30, 60 mg/kg), dose-dependent", "value": "decreased"}
    ]}
  ]
}
